Measurements published in US20050197350A1, “Novel quinoline, tetrahydroquinazoline, and pyrimidine derivatives and methods of treatment related to the use thereof” (TAISHO PHARMACEUTICAL CO., LTD., priority 2003, published 2005).
Where two headings read alike, the source gives them in different places.

Test system: MCH receptors
Assay: MCH receptor activity class (method not given)
[1] = class by percent of control at 10^-7 M or IC50
[2] = MCH receptor, class by percent of control at 10^-7 M or IC50
[3] = class by percent of control at 10^−7 M or IC50
[4] = class 1-3 by percent of control at 10^-7 M or IC50
[5] = MCH receptor activity class 1-3 (percent of control at 10^-7 M or IC50)

With `CN(C)c1ccnc(N[C@H]2CC[C@@H](NC(=O)c3ccccc3Cc3ccccc3)CC2)n1` [compound 824] the class [1] was 3 (Class 3 The value of percent of control at 10^−7 M was more than 60% or the value of IC50 was more than 200 nM.).

`CCc1cccc(C(C)C)c1NC(=S)N[C@H]1CC[C@@H](Nc2cc(N(C)C)c3ccccc3n2)CC1` [compound 2172] was tested, and the class [1] was 3 (Class 3 The value of percent of control at 10^−7 M was more than 60% or the value of IC50 was more than 200 nM.).

`COc1cc(CCN[C@H]2CC[C@@H](Nc3cc(N(C)C)c4ccccc4n3)CC2)cc(OC)c1` [compound 1458] was tested, and the class [1] was 3 (Class 3 The value of percent of control at 10^−7 M was more than 60% or the value of IC50 was more than 200 nM.).

In the case of `CN(C)c1nc(N[C@H]2CC[C@@H](NC(=S)Nc3cc(Cl)c(Cl)c(Cl)c3Cl)CC2)nc2c1CCCC2` [compound 1999], the class [2] was 3 (Class 3 The value of percent of control at 10^−7 M was more than 60% or the value of IC50 was more than 200 nM.).

In the case of `CN(C)c1nc(N[C@H]2CC[C@@H](NCc3ccc(F)c(Br)c3)CC2)nc2c1CCCC2` [compound 1346], the class [1] was 3 (Class 3 The value of percent of control at 10^−7 M was more than 60% or the value of IC50 was more than 200 nM.).

`Cc1cc(N(C)C)nc(N[C@H]2CC[C@@H](C(=O)NCc3cc(Cl)cc(Cl)c3)CC2)n1` [Example 2575, cis-N-(3,5-dichlorobenzyl)-4-{[4-(dimethylamino)-6-methylpyrimidin-2-yl]amino}cyclohexanecarboxamide] was tested, and the class was 1.

With `CN(C)c1nc(N[C@H]2CC[C@@H](CNC(=O)Nc3c(Br)cc(F)cc3Br)CC2)nc2c1CCCC2` [compound 2490, N-(2,6-dibromo-4-fluorophenyl)-N′-[(cis-4-{[4-(dimethylamino)-5,6,7,8-tetrahydroquinazolin-2-yl]amino}cyclohexyl)methyl]urea] the class [1] was 1 (Class 1: The value of percent of control at 10^−7 M was less than 40% or the value of IC50 was less than 50 nM.).

With `COc1cccc(C(=O)NC[C@H]2CC[C@@H](Nc3nccc(N(C)C)n3)CC2)c1` [compound 365] the class [1] was 3 (Class 3 The value of percent of control at 10^−7 M was more than 60% or the value of IC50 was more than 200 nM.).

With `CN(C)c1nc(N[C@H]2CC[C@@H](CNC(=O)c3cc(C(C)(C)C)nn3C)CC2)nc2c1CCCC2` [compound 648] the class [1] was 3 (Class 3 The value of percent of control at 10^−7 M was more than 60% or the value of IC50 was more than 200 nM.).

With `COc1ccc(NC(=O)N[C@H]2CC[C@@H](Nc3nc4c(c(N(C)C)n3)CCCC4)CC2)cc1Cl` [compound 1721] the class [1] was 3 (Class 3 The value of percent of control at 10^−7 M was more than 60% or the value of IC50 was more than 200 nM.).

For `COc1ccc(Cl)cc1NC(=O)N[C@H]1CC[C@@H](Nc2nc3c(c(N(C)C)n2)CCCC3)CC1` [compound 1899], the class [2] was 3 (Class 3 The value of percent of control at 10^−7 M was more than 60% or the value of IC50 was more than 200 nM.).

For `CN(C)c1cc(N[C@H]2CC[C@@H](CNC(=O)CC3=CCCCC3)CC2)nc2ccccc12` [compound 806], the class [1] was 3 (Class 3 The value of percent of control at 10^−7 M was more than 60% or the value of IC50 was more than 200 nM.).

For `CN(C)c1ccnc(N[C@H]2CC[C@@H](NC(=O)Nc3c(Cl)cccc3C(F)(F)F)CC2)n1` [compound 2193], the class [1] was 3 (Class 3 The value of percent of control at 10^−7 M was more than 60% or the value of IC50 was more than 200 nM.).

In the case of `CN(C)c1cc(N[C@H]2CC[C@@H](NC(=O)c3cccc(F)c3)CC2)nc2ccccc12` [compound 105, N-(cis-4-{[4-(dimethylamino)quinolin-2-yl]amino}cyclohexyl)-3-fluorobenzamide], the class [2] was 2 (Class 2: The value of percent of control at 10^−7 M was from 40% to 60% or the value of IC′50 was from 50 nM to 200 nM.).

With `CN(C)c1nc(N[C@H]2CC[C@@H](NC(=O)Nc3ccc4c(c3)CCC4)CC2)nc2c1CCCC2` [compound 1903] the class [2] was 3 (Class 3 The value of percent of control at 10^−7 M was more than 60% or the value of IC50 was more than 200 nM.).

`Cc1cc(C(=O)NC[C@H]2CC[C@@H](Nc3cc(N(C)C)c4ccccc4n3)CC2)c(C)o1` [compound 198, N-[(cis-4-{[4-(dimethylamino)quinolin-2-yl]amino}cyclohexyl)methyl]-2,5-dimethyl-3-furamide] was tested, and the class [2] was 3 (Class 3 The value of percent of control at 10^−7 M was more than 60% or the value of IC50 was more than 200 nM.).

With `CC(Oc1ccccc1)C(=O)NC[C@H]1CC[C@@H](Nc2nccc(N(C)C)n2)CC1` (relative stereo) [compound 394] the class [1] was 3 (Class 3 The value of percent of control at 10^−7 M was more than 60% or the value of IC50 was more than 200 nM.).

With `CCOc1ccc(C(=O)N[C@H]2CC[C@@H](Nc3nc(C)cc(N(C)C)n3)CC2)cc1` [compound 2971] the class [3] was 3 (Class 3 The value of percent of control at 10^−7 M was more than 60% or the value of IC50 was more than 200 nM.).

For `CN(C)c1ccnc(N[C@H]2CC[C@@H](NC(=O)Nc3ccccc3I)CC2)n1` [compound 2198], the class [1] was 3 (Class 3 The value of percent of control at 10^−7 M was more than 60% or the value of IC50 was more than 200 nM.).

With `COc1cc(OC)c(CNC[C@H]2CC[C@@H](Nc3cc(N(C)C)c4ccccc4n3)CC2)c(OC)c1` [compound 1161] the class [1] was 2 (Class 2: The value of percent of control at 10^−7 M was from 40% to 60% or the value of IC′50 was from 50 nM to 200 nM.).

In the case of `COc1cc(OC)c(CNC[C@H]2CC[C@@H](Nc3nc4c(c(N(C)C)n3)CCCC4)CC2)c(OC)c1` [compound 1403], the class [1] was 1 (Class 1: The value of percent of control at 10^−7 M was less than 40% or the value of IC50 was less than 50 nM.).

For `Cc1ccc(CNC[C@H]2CC[C@@H](Nc3cc(N(C)C)c4ccccc4n3)CC2)s1` [compound 1180], the class [1] was 3 (Class 3 The value of percent of control at 10^−7 M was more than 60% or the value of IC50 was more than 200 nM.).

In the case of `CN(C)c1cc(N[C@H]2CC[C@@H](CNC(=O)Cc3ccccc3OC(F)(F)F)CC2)nc2ccccc12` [compound 808], the class [1] was 3 (Class 3 The value of percent of control at 10^−7 M was more than 60% or the value of IC50 was more than 200 nM.).

In the case of `Cc1cccc(C(=O)N[C@H]2CC[C@@H](Nc3nc4c(c(N(C)C)n3)CCCC4)CC2)c1` [compound 486], the class [4] was 1 (Class 1: The value of percent of control at 10^−7 M was less than 40% or the value of IC50 was less than 50 nM.).

For `Cc1cc(C(=O)N[C@H]2CC[C@@H](Nc3nc4c(c(N(C)C)n3)CCCC4)CC2)ccc1F` [compound 517], the class [4] was 1 (Class 1: The value of percent of control at 10^−7 M was less than 40% or the value of IC50 was less than 50 nM.).

`COc1ccc2ccccc2c1CN[C@H]1CC[C@@H](Nc2nc3c(c(N(C)C)n2)CCCC3)CC1` [compound 1332] was tested, and the class [1] was 3 (Class 3 The value of percent of control at 10^−7 M was more than 60% or the value of IC50 was more than 200 nM.).

In the case of `CN(C)c1cc(N[C@H]2CC[C@@H](CNC(=O)c3ccc(F)cc3Cl)CC2)nc2ccccc12` [compound 188], the class [2] was 3 (Class 3 The value of percent of control at 10^−7 M was more than 60% or the value of IC50 was more than 200 nM.).

With `Cc1cnc(N[C@H]2CC[C@@H](NC(=O)C[S+]([O-])c3ccc(F)c(F)c3)CC2)nc1N(C)C` (relative stereo) [compound 2883, 2-[(3,4-difluorophenyl)sulfinyl]-N-(cis-4-{[4-(dimethylamino)-5-methylpyrimidin-2-yl]amino}cyclohexyl)acetamide] the class [3] was 2 (Class 2: The value of percent of control at 10^−7 M was from 40% to 60% or the value of IC′50 was from 50 nM to 200 nM.).

`CN(C)c1cc(N[C@H]2CC[C@@H](NC(=O)NCc3ccc(F)cc3)CC2)nc2ccccc12` [compound 2155] was tested, and the class [1] was 3 (Class 3 The value of percent of control at 10^−7 M was more than 60% or the value of IC50 was more than 200 nM.).

`CCOc1ccccc1CNC[C@H]1CC[C@@H](Nc2nccc(N(C)C)n2)CC1` [compound 1244] was tested, and the class [1] was 2 (Class 2: The value of percent of control at 10^−7 M was from 40% to 60% or the value of IC′50 was from 50 nM to 200 nM.).

In the case of `CN(C)c1ccnc(N[C@H]2CC[C@@H](NC(=S)Nc3ccc(Br)cc3Cl)CC2)n1` [compound 2316], the class [5] was 3 (Class 3 The value of percent of control at 10^−7 M was more than 60% or the value of IC50 was more than 200 nM.).

With `Cc1cc(N(C)C)nc(N[C@H]2CC[C@@H](NC(=O)c3cccc(OC(F)(F)F)c3)CC2)n1` [compound 2967, N-(cis-4-{[4-(dimethylamino)-6-methylpyrimidin-2-yl]amino}cyclohexyl)-3-(trifluoromethoxy)benzamide] the class [3] was 1 (Class 1: The value of percent of control at 10^−7 M was less than 40% or the value of IC50 was less than 50 nM.).

`Cc1cccc(C)c1NC(=O)N[C@H]1CC[C@@H](Nc2nc3c(c(N(C)C)n2)CCCC3)CC1` [compound 1660] was tested, and the class (activity class 1-3: percent of control at 10^-7 M or IC50) was 3 (Class 3 The value of percent of control at 10^−7 M was more than 60% or the value of IC50 was more than 200 nM.).

With `CN(C)c1ccnc(N[C@H]2CC[C@@H](NC(=O)Nc3cccc4ccccc34)CC2)n1` [compound 2220] the class [1] was 3 (Class 3 The value of percent of control at 10^−7 M was more than 60% or the value of IC50 was more than 200 nM.).

`CN(C)c1cc(N[C@H]2CC[C@@H](CNC(=O)c3cccc(Br)c3)CC2)nc2ccccc12` [compound 148] was tested, and the class [2] was 3 (Class 3 The value of percent of control at 10^−7 M was more than 60% or the value of IC50 was more than 200 nM.).

`CN(C)c1nc(N[C@H]2CC[C@@H](CNC(=O)Nc3ccccc3C(C)(C)C)CC2)nc2c1CCCC2` [compound 2476] was tested, and the class [5] was 2 (Class 2: The value of percent of control at 10^−7 M was from 40% to 60% or the value of IC′50 was from 50 nM to 200 nM.).

`COc1cc(CNC[C@H]2CC[C@@H](Nc3cc(N(C)C)c4ccccc4n3)CC2)cc(OC)c1OC` [compound 1136] was tested, and the class (activity class per percent of control at 10^-7 M or IC50) was 3 (Class 3 The value of percent of control at 10^−7 M was more than 60% or the value of IC50 was more than 200 nM.).

In the case of `CN(C)c1ccnc(N[C@H]2CC[C@@H](NC(=O)Nc3ccc(Br)cc3C(F)(F)F)CC2)n1` [compound 2242], the class [1] was 3 (Class 3 The value of percent of control at 10^−7 M was more than 60% or the value of IC50 was more than 200 nM.).
